Earlier results, collected in patent US10272040B2, “Liposomal formulation for ocular drug delivery” (Nanyang Technological University, priority 2010, dated 2019).

What was measured:
[1] = other drugs in liposomes
[2] = SRC PhysProp Database

Row | Compound | Drug:Lipid mole ratio, Literature [1] | log P [2]
1 | N.N.[Cl][Pt][Cl] [cisplatin] | 0.05 | –
2 | CC(C)OC(=O)CCC/C=C\C[C@@H]1[C@@H](CC[C@@H](O)CCc2ccccc2)[C@H](O)C[C@@H]1O [latanoprost] | – | 4.4
